Assay results: patent US9239334B2, “Fatty acid C16: 1N7-palmitoleate a lipokine and biomarker for metabolic status” (PRESIDENT AND FELLOWS OF HARVARD COLLEGE, priority 2008, dated 2016)

Test system: SCD-1 protein
Assay: Immunoblotting of Flag-tagged SCD-1 in hepatocytes
Type: cell-based
Conditions: CMV promoter construct
Source text: FIG. 3F presents data from the immunoblotting of Flag-tagged SCD-1 in hepatocytes treated with control, palmitate and palmitoleate. Anti-tubulin blot was used as loading control. The observations reported herein also raised the possibility that C16:1n7-palmitoleate might be the lipid species responsible, at least in part, for the metabolic activities linked to adipose tissue FABPs. […] Because palmitoleate is nearly ten-times more abundant in the plasma of FABP^−/− mice than is AA (FIG. 2C), it is most likely accounts for the suppression of SCD-1 under physiologically relevant conditions. The effects of palmitoleate on the levels of SCD-1 protein, which is known to have a very short half-life (Heinemann & Ozols, 68 Prostaglandins Leukot. Essent. Fatty Acids 123-33 (2003)), were also examined. […] Maeda et al., 2005.

CCCCCC/C=C\CCCCCCCC(=O)O [palmitoleate, C16:1n7-palmitoleate]
Flag-tagged SCD-1 protein level: significantly increased SCD-1 protein degradation
